# Measurements published in ChEMBL document CHEMBL1201862, “PubChem BioAssay data set” (2004).
# Activity calls are given as the source filed them.
# Tests used:
# Cytochrome P450 3A4 = Cytochrome P450 3A4 (Homo sapiens, UniProt P08684);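 note: CYP3A4 tested as one member of a cytochrome P450 panel screen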
# [1] = biological target: Dual specificity tyrosine-phosphorylation-regulated kinase 1A (Rattus norvegicus, UniProt Q63470); assay type: biochemical, Homo sapiens
# Streptococcus = experiment: Group A Streptococcus viability loss, dose response, counter-screen for streptokinase expression inhibitor project, luminescence, BacTiterGlo (AID 1915); assay type: functional, organism-based;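 note: potency for reduction of bacterial viability or growth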
# Streptokinase A = biological target: T1, Streptokinase A (Streptococcus pyogenes serotype M1, UniProt P10520); experiment: S. pyogenes streptokinase expression inhibitors, potency, dose response, plasminogen activation absorbance, OD405 (AID 1914); assay type: functional, Streptococcus pyogenes M1 GAS;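 note: secreted streptokinase activity via plasminogen activation per viability signal from cell pellet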
# T1 sequence (P10520 whole entry): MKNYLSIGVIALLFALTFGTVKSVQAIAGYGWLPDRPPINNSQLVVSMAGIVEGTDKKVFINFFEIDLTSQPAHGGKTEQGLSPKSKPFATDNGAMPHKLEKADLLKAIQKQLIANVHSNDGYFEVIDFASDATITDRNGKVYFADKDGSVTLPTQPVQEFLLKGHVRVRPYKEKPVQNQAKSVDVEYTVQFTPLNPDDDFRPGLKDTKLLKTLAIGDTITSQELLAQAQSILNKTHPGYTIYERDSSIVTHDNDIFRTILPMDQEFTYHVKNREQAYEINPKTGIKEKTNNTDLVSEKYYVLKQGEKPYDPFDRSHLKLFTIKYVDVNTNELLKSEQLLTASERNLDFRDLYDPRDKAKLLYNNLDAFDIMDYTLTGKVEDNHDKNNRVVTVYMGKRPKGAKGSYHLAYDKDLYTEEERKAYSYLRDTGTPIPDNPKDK
# [2] = tested on: Streptococcus sp. 'group A'; experiment: growth inhibition of control SK(-) GAS strain, dose response, counter-screen for streptokinase expression inhibitor project, luminescence, kanamycin, BacTiterGlo, confirmation (AID 1900); assay type: functional, organism-based
# [3] = cytotoxicity in HEK-293T cells, dose response, cytotoxicity control for TCR NF-kB inhibitor project, luminescence, T-cell screen hits (AID 489026); assay type: functional, cell-based;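 note: cells exposed to compound about 14 hours before the viability readout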
# Bcl-2-related protein A1 = biological target: T2, Bcl-2-related protein A1 (Mus musculus, UniProt Q07440); assay type: functional;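 note: confirmatory dose–response counterscreen on Bfl-1, used to check hits from a UBC13 polyubiquitin inhibitor campaign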
# T2 sequence (Q07440 whole entry): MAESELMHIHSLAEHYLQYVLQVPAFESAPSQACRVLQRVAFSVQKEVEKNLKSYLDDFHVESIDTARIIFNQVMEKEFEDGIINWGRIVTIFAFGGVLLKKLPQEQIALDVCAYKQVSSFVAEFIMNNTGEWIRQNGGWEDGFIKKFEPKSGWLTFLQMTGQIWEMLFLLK
# [4] = biological target: T3, DNA repair protein RAD52 homolog (Homo sapiens, UniProt P43351); assay type: functional, biochemical
# T3 sequence (P43351 whole entry): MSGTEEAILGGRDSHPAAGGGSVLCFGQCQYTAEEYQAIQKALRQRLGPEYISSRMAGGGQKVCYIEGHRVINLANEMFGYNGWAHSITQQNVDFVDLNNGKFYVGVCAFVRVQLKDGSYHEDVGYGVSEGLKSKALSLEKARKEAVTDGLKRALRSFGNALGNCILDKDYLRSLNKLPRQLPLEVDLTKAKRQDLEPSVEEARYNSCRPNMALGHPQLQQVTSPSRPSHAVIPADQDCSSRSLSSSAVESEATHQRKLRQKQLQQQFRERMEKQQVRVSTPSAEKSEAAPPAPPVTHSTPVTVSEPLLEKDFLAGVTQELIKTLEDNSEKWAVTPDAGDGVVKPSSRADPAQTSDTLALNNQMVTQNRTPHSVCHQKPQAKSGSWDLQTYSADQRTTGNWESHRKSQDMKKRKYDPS
# [5] = Luminescence Cell-Based Dose Retest to Confirm Inhibitors of Cancer Stem Cells. [Related pubchem assays (depositor defined):AID2717, AID2721]; assay type: functional; conditions: Homo sapiens
# [6] = microbe, parasite or virus in culture; assay type: functional; conditions: Mycobacterium tuberculosis
# [7] = biological target: T4, Ubiquitin-conjugating enzyme E2 N (Homo sapiens, UniProt P61088); assay type: functional
# T4 sequence (P61088 whole entry): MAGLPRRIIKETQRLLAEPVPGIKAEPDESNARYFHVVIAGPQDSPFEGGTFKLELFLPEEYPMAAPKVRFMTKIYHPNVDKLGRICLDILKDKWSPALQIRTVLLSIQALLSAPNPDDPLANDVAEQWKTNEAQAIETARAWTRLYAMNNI
# [8] = biological target: T4, Ubiquitin-conjugating enzyme E2 N; assay type: functional; remark: listed apart in the source
# Melanocortin receptor 4 = Melanocortin receptor 4 (Homo sapiens, UniProt P32245); assay type: functional, cell-based;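 note: Cell-based assay with luminescence read-out, confirmatory dose-response testing for agonist activity of biased ligands at MC4R; human U2OS cells with tagged receptor and beta-arrestin; potency of agonists that increase receptor coupling to beta-arrestin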
# Sequence of Melanocortin receptor 4 (P32245 whole entry): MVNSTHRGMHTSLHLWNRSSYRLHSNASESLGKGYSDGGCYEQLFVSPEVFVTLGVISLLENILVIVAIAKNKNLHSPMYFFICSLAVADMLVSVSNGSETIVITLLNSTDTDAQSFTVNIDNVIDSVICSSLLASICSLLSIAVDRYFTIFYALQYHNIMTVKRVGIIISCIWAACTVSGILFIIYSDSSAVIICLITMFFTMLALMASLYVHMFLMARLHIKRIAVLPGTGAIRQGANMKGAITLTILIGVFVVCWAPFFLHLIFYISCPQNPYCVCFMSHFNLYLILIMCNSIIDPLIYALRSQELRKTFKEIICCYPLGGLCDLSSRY
# Phospholipase A2 = Phospholipase A2 (Homo sapiens, UniProt P04054); assay type: functional;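 note: confirmatory dose-response counterscreen on phospholipase A2, testing hits that came from an ultra-high-throughput screen for ATG4B inhibitors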
# Sequence of Phospholipase A2 (P04054 whole entry): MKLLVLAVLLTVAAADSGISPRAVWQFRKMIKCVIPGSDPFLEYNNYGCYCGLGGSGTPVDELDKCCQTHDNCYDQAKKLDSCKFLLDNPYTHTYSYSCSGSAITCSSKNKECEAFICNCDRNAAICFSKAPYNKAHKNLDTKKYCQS
# Cysteine protease ATG4B = biological target: T5, Cysteine protease ATG4B (Homo sapiens, UniProt Q9Y4P1); assay type: functional;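 note: Fluorescence-based dose-response confirmation assay measuring inhibition of ATG4B activity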
# T5 sequence (Q9Y4P1 whole entry): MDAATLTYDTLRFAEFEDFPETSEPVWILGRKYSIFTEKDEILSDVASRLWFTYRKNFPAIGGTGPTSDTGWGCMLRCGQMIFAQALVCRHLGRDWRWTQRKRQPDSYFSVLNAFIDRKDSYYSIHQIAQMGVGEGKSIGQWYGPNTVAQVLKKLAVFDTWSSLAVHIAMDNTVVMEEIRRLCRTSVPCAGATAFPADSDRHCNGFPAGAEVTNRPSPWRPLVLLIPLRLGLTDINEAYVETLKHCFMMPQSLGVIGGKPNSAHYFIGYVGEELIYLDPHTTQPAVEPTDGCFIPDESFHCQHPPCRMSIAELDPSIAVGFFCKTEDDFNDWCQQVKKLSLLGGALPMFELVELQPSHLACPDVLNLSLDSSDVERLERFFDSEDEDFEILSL
# Nonstructural protein 1 = Nonstructural protein 1 (Influenza A virus, UniProt Q194T2); assay type: functional, Influenza A virus (A/California/07/2009(H1N1))
# Sequence of Nonstructural protein 1 (Q194T2 whole entry): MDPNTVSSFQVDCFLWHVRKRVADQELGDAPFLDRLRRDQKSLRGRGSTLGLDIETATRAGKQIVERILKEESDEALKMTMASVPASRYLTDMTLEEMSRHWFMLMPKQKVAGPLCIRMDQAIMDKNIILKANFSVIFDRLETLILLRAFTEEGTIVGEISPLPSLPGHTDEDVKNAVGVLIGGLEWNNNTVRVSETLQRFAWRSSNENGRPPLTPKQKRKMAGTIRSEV
# [9] = Luminescence Cell-Based Dose Response HTS to Identify Inhibitors of 5'UTR Stem-Loop Driven Prion Protein mRNA Translation in H4 Neuroglioblastoma Cells. [Related pubchem assays: 1827 (Project Summary), 1813 (Primary HTS)]; assay type: functional
# [10] = inhibitors of SNCA 5'UTR-driven reporter translation, confirmation, H4 neuroglioma cells, luminescence (AID 1988); assay type: functional, cell-based
# [11] = inhibitors of firefly luciferase expression or activity, dose response, H4 neuroglioma cells, luminescence (AID 1990); assay type: functional, cell-based
# INS1 = experiment: beta cell apoptosis inhibitors, cytokine rescue, dose response, luminescence, retest (AID 449756); assay type: functional, cell-based; conditions: Rattus norvegicus;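 note: cell death triggered by IL-1 beta plus TNF-alpha plus IFN-gamma mixture; protective hits raise ATP signal compared with cytokine alone wells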
# Escherichia coli = experiment: microbe, parasite or virus in culture
# Cytochrome P450 2C9 = Cytochrome P450 2C9 (Homo sapiens, UniProt P11712)
# Sequence of Cytochrome P450 2C9 (P11712 whole entry): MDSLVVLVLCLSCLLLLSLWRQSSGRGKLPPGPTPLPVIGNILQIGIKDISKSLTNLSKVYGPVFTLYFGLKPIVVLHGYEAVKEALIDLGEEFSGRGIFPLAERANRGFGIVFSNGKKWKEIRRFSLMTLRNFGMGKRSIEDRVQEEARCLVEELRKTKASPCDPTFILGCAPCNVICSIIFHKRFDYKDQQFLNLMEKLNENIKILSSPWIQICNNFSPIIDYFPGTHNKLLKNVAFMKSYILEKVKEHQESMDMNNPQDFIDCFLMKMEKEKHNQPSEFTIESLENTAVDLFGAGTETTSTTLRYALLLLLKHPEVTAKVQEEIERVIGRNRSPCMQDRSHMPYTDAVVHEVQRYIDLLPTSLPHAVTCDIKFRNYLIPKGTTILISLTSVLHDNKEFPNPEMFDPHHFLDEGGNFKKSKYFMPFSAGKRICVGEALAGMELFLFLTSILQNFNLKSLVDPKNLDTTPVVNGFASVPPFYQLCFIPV
# Cytochrome P450 1A2 = biological target: T6, Cytochrome P450 1A2 (Homo sapiens, UniProt P05177);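 note: PubChem cytochrome P450 panel assay, CYP1A2 panel member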
# T6 sequence (P05177 whole entry): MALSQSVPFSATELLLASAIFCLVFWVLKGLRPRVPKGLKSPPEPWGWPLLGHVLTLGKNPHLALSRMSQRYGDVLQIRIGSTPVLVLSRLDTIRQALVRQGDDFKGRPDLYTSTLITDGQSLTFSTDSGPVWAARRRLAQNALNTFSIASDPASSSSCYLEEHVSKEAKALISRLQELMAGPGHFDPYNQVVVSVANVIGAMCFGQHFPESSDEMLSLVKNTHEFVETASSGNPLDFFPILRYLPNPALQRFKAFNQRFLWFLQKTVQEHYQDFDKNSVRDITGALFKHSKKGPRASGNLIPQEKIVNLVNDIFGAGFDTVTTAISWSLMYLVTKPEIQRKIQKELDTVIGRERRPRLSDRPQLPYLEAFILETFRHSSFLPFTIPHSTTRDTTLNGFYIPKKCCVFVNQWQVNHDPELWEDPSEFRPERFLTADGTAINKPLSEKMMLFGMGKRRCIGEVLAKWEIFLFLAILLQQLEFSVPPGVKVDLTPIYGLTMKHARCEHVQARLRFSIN
# Cytochrome P450 2C19 = Cytochrome P450 2C19 (Homo sapiens, UniProt P33261); experiment: Cytochrome panel assay with activity outcomes. Panel member name: p450-cyp2c19 Compounds with AC50 equal or less than 10 uM are considered active; assay type: functional
# Sequence of Cytochrome P450 2C19 (P33261 whole entry): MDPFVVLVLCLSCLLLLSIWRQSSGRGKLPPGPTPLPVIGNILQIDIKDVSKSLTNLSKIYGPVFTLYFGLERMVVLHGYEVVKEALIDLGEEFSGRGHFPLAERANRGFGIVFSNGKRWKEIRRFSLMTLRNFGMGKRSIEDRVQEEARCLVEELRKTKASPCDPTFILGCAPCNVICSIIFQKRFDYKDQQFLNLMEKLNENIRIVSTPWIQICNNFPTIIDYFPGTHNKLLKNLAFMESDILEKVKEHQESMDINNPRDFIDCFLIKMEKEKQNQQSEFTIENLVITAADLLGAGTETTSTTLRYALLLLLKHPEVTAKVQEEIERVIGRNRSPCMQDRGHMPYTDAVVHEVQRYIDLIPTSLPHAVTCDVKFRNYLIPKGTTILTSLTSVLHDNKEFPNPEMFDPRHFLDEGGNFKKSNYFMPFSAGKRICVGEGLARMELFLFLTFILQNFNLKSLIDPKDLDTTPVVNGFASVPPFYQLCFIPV
# [12] = Luminescence Cell-Based Dose Confirmation HTS to Identify Activators of 5'UTR Stem-Loop Driven Alpha-Synuclein mRNA Translation in H4 Neuroglioblastoma Cells. [Related pubchem assays: 1829 (Project Summary), 1814 (Primary HTS)]; assay type: functional
# H4 = experiment: Luminescence Cell-Based Dose Response HTS to Identify Activators of 5'UTR Stem-Loop Driven Prion Protein mRNA Translation in H4 Neuroglioblastoma Cells. [Related pubchem assays: 1829 (Project Summary), 1814 (Primary HTS)]; assay type: functional; conditions: Homo sapiens
# [13] = biological target: T7, Heat shock factor protein 1 (Mus musculus, UniProt P38532); experiment: inhibition of MG132-induced HSE-luciferase signal, confirmation, cell-based, NIH3T3, luminescence, dose retest (AID 2382); assay type: functional;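 note: NIH3T3 fibroblasts with HSF1-driven luciferase reporter stressed by proteasome inhibitor MG132; luminescence from HSF1-driven luciferase expression after 8 hours of MG132 stress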
# T7 sequence (P38532 whole entry): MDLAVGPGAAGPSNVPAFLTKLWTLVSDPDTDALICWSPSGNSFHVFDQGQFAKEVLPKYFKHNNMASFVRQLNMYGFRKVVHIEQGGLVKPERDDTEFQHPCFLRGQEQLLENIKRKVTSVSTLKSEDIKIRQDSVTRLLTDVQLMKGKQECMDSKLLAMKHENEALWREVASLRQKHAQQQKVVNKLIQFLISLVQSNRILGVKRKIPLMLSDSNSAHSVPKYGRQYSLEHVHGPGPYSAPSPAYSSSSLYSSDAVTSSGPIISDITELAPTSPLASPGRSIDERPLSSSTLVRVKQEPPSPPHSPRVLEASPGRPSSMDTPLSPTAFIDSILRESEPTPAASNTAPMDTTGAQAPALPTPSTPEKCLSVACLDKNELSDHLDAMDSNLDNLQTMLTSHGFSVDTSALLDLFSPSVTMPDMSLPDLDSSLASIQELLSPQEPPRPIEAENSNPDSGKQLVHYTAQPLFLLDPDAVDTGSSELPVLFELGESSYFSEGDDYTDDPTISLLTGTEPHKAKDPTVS
# [14] = Luminescence Cell-Based Dose Response HTS to Identify Activators of Luciferase Translation or Activity in H4 […] Cells. [Related pubchem assays: 1829 (Project Summary), 1814 (Primary HTS)]; assay type: functional
# Sequence of Cytochrome P450 3A4 (P08684 whole entry): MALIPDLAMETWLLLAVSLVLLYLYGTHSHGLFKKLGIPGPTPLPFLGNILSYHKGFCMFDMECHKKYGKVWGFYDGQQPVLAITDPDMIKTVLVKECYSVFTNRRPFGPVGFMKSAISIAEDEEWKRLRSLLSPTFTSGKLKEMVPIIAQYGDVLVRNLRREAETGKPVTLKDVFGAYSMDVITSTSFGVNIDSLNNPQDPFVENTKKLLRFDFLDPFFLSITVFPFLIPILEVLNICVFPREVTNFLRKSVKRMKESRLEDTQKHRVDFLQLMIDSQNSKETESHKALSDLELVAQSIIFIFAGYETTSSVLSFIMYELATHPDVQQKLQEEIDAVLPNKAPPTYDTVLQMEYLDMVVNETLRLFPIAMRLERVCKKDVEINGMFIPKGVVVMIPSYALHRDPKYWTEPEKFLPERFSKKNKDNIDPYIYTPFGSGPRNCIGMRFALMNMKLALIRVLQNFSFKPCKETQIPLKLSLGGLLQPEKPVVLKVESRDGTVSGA
compound,measurement,setting,value
COC(=O)Cc1cc(O)n2nc(C)c(-c3ccccc3)c2n1,AC50,Cytochrome P450 3A4,inconclusive
O=C(/C=C/c1ccccc1)Nc1cccnc1Oc1ccccc1F,AC50,[1],11.1 µM (active)
Cc1c(C(=O)N/N=C/c2ccc(Cl)cc2)[nH]c2ccc(Cl)cc12,EC50,Streptococcus,10.9 µM (active)
same,EC50,Streptokinase A,> 150 µM (not active)
same,EC50,[2],2.61 µM (active)
same,IC50,[3],> 80 µM (inactive)
COc1cc2nc(Nc3ccc(C)c(Cl)c3)nc(N)c2cc1OC,IC50,Bcl-2-related protein A1,18.7 µM (active)
same,AC50,[4],9.23 µM (active)
same,AC50,[5],6.52 µM (active)
same,CC50,[6],3.77 µM (active)
same,IC50,[7],5.71 µM (active)
same,IC50,[8],8.57 µM (active)
same,EC50,Melanocortin receptor 4,> 89.2 µM (inactive)
O=C(Oc1c(-c2ccccc2)c(=O)n2c3c(cccc13)CC2)c1ccc(F)cc1,IC50,Phospholipase A2,10.9 µM (active)
same,IC50,Cysteine protease ATG4B,14.1 µM (active)
O=C(c1ccc(-c2cc(O)c3ncccc3c2)cc1)N1CCNCC1,IC50,Bcl-2-related protein A1,7 µM (active)
same,AC50,[4],1.66 µM (active)
same,IC50,Nonstructural protein 1,9.74 µM (active)
same,IC50,[7],3.14 µM (active)
same,IC50,[8],3.61 µM (active)
CCN1CCN(Cc2ccc(NC(=O)c3cc(NC(=O)C(=O)c4c[nH]c5ccccc45)cc(OC)c3)cc2C(F)(F)F)CC1,IC50,Bcl-2-related protein A1,> 20 µM (inactive)
same,EC50,[9],6.9 µM (active)
same,EC50,[10],9.06 µM (active)
same,IC50,[7],11.9 µM (active)
same,IC50,[8],16.8 µM (active)
same,EC50,[11],8.53 µM (active)
same,AC50,INS1,7.13 µM (active)
Cc1cccc(/C=N/NC(=O)c2cc(C3CC3)nc3ccccc23)n1,AC50,Escherichia coli,37.9 µM (active)
C=CCN1CCc2c(cc(O)c(O)c2Cl)[C@H](c2ccccc2)C1,AC50,Cytochrome P450 2C9,31.6 µM (inconclusive)
same,AC50,Cytochrome P450 3A4,inconclusive
same,AC50,Cytochrome P450 1A2,20 µM (inconclusive)
O=C(c1ccccc1F)c1cn(Cc2ccccc2)c2ccccc12,AC50,Cytochrome P450 2C9,35.5 µM (inconclusive)
same,AC50,Cytochrome P450 3A4,inconclusive
Oc1ccc(/C=N/n2c(S)nnc2-c2ccccc2)cc1Br,AC50,[1],11.8 µM (active)
O=C(c1cn(Cc2ccccc2)nc1-c1ccccc1)N1CCN(c2ccccn2)CC1,IC50,[3],> 80 µM (inactive)
CC(=O)O[C@H]1CC[C@@]2(C)[C@@H](CC[C@H]3[C@H]2CC(=O)[C@]2(C)[C@@H]3C[C@@H](N3CC3)[C@H]2C(C)=O)C1,AC50,Cytochrome P450 2C19,inconclusive
same,AC50,Cytochrome P450 3A4,inconclusive
same,AC50,Cytochrome P450 1A2,0.0398 µM (inconclusive)
COC(=O)C(C)Oc1cc(C)cc2oc(=O)c3c(c12)CCCC3 (configuration not stated),AC50,Escherichia coli,28.2 µM (active)
Cc1ccc(N2CN=c3s/c(=C\c4ccccn4)c(=O)n3C2)cc1,EC50,[12],> 120 µM (not active)
same,AC50,[1],3.58 µM (active)
same,EC50,H4,> 120 µM (not active)
same,EC50,[13],> 195 µM (not active)
same,EC50,[14],29.5 µM (active)
Oc1ccc(/C=N/n2c(-c3ccccc3)n[nH]c2=S)cc1,AC50,[1],4.2 µM (active)
COc1ccc(S(=O)(=O)N2N=C(C)Oc3ccccc3C2=O)cc1,IC50,[3],> 80 µM (inactive)
CC(=O)Oc1ccc(C(=O)Cc2ccccn2)c(O)c1,AC50,Escherichia coli,27.9 µM (active)
